Columns and labels:
Format in all cases: in vivo
Boophilus microplus = Boophilus microplus injection test; details: application rate 20 μg/animal, after 7 days, laying of fertile eggs
Procedure: Solvent: dimethyl sulfoxide […] The animals are transferred into dishes and kept in a climate-controlled room. Efficacy is assessed after 7 days by laying of fertile eggs. Eggs which are not visibly fertile are stored in a climate-controlled cabinet until the larvae hatch after about 42 days.

Lucilia cuprina = Lucilia cuprina test; details: application rate 100 ppm, L1 larvae, kill after 2 days
Procedure: Solvent: dimethyl sulfoxide
To produce a suitable preparation of active compound, 10 mg of active compound are mixed with 0.5 ml of dimethyl sulfoxide, and the concentrate is diluted with water to the desired concentration.
About 20 L1 larvae of the Australian sheep blowfly (Lucilia cuprina) are transferred into a test vessel containing minced horsemeat and the active compound formulation of the desired concentration.
After 2 days, the kill in % is determined. 100% means that all the larvae have been killed; 0% means that no larvae have been killed.

Phaedon cochleariae = Phaedon cochleariae spray test; details: application rate 100 g/ha, larvae on Chinese cabbage leaf discs, after 7 days
Procedure: (§1) Solvent: 78.0 parts by weight of acetone • • 1.5 parts by weight of dimethylformamide Emulsifier: alkylaryl polyglycol ether […] To produce further test concentrations, the formulation is diluted with emulsifier-containing water. Discs of Chinese cabbage leaves (Brassica pekinensis) are sprayed with an active ingredient formulation of the desired concentration and, after drying, populated with larvae of the mustard beetle (Phaedon cochleariae).

Ctenocephalides felis = Ctenocephalides felis oral test; details: application rate 100 ppm in citrated cattle blood, kill after 2 days
Source text: Solvent: dimethyl sulfoxide […] Dilution with citrated cattle blood gives the desired concentration. About 20 unfed adult cat fleas (Ctenocephalides felis) are placed into a chamber which is closed at the top and bottom with gauze. A metal cylinder whose bottom end is closed with parafilm is placed onto the chamber. The cylinder contains the blood/active ingredient formulation, which can be imbibed by the fleas through the parafilm membrane.

Spodoptera frugiperda = Spodoptera frugiperda spray test; details: application rate 100 g/ha, caterpillars on maize leaf discs, after 7 days
Procedure: as §1, with “Leaf discs” for “Discs”, “maize (Zea mays)” for “Chinese cabbage leaves (Brassica pekinensis)”, “compound” for “ingredient”, “caterpillars” for “larvae”, “armyworm (Spodoptera frugiperda).” for “mustard beetle (Phaedon cochleariae).”

SMILES	efficacy (Boophilus microplus) [%]	efficacy (Lucilia cuprina) [%]	efficacy (Phaedon cochleariae) [%]	efficacy (Ctenocephalides felis) [%]	efficacy (Spodoptera frugiperda) [%]
COc1cc(C(=O)Nc2ccc(F)c(-c3cnn(-c4c(C)cc(C(F)(C(F)(F)F)C(F)(F)F)cc4C(F)(F)F)c3)c2)ccc1F [Example 2-5]	100	–	–	–	–
COc1ccc(C(=O)Nc2ccc(F)c(-c3cnn(-c4c(C)cc(C(F)(C(F)(F)F)C(F)(F)F)cc4C(F)(F)F)c3)c2)cc1F [Example 2-6]	80	–	–	–	–
COc1cc(C(=O)Nc2ccc(F)c(-c3cnn(-c4c(C)cc(C(F)(C(F)(F)F)C(F)(F)F)cc4C(F)(F)F)c3)c2)ccc1C#N [Example 2-8]	100	90	83	–	–
Cc1cc(C(F)(C(F)(F)F)C(F)(F)F)cc(C(F)(F)F)c1-n1cc(-c2cc(NC(=O)c3ccsc3)ccc2F)cn1 [Example 2-9]	100	100	–	95	–
Cc1cc(C(F)(C(F)(F)F)C(F)(F)F)cc(C(F)(F)F)c1-n1cc(-c2cc(NC(=O)c3ccccc3)ccc2F)cn1 [Example 2-10]	100	–	–	–	–
Cc1ncc(-c2cnn(-c3c(Cl)cc(C(F)(C(F)(F)F)C(F)(F)F)cc3Cl)c2)cc1NC(=O)c1ccncc1 [Example 18]	–	–	83	–	100
Cc1cc(C(F)(C(F)(F)F)C(F)(F)F)cc(C)c1-n1cc(-c2ccc(N(C)C)c(NC(=O)c3ccc(F)cc3)c2)cn1 [Example 21]	100	–	–	100	100
COc1cc(C(=O)Nc2c(F)ccc(-c3cnn(-c4c(C)cc(C(F)(C(F)(F)F)C(F)(F)F)cc4C(F)(F)F)c3)c2F)ccc1F [Example 27]	100	90	–	100	–
COc1cc(C(=O)Nc2cc(-c3cnn(-c4c(C)cc(C(F)(C(F)(F)F)C(F)(F)F)cc4C(F)(F)F)c3)ccc2F)ccc1F [Example 28]	–	–	100	–	–
CCOc1cc(C(=O)Nc2cc(-c3cnn(-c4c(C)cc(C(F)(C(F)(F)F)C(F)(F)F)cc4C(F)(F)F)c3)ccc2F)ccc1F [Example 29]	100	–	–	80	–
COc1cc(C(=O)Nc2cc(-c3cnn(-c4c(C)cc(C(F)(C(F)(F)F)C(F)(F)F)cc4C(F)(F)F)c3)ccc2F)ccc1C#N [Example 35]	–	–	100	–	100
COc1cc(C(=O)Nc2cc(-c3cnn(-c4c(C)cc(C(F)(C(F)(F)F)C(F)(F)F)cc4C(F)(F)F)c3)ccc2F)ccc1C [Example 47]	100	–	–	80	–
COc1ccc(C(=O)Nc2cc(-c3cnn(-c4c(C)cc(C(F)(C(F)(F)F)C(F)(F)F)cc4C(F)(F)F)c3)ccc2F)cc1F [Example 55]	100	80	100	100	–
Cc1cc(C(F)(C(F)(F)F)C(F)(F)F)cc(C(F)(F)F)c1-n1cc(-c2ccc(F)c(NC(=O)c3ccc(Cl)c(F)c3)c2)cn1 [Example 56]	100	100	–	100	–
COc1cc(C(=O)Nc2cccc(-c3cnn(-c4c(C)cc(C(F)(C(F)(F)F)C(F)(F)F)cc4C(F)(F)F)c3)c2F)ccc1F [Example 71]	100	–	100	100	100
COc1ccc(C(=O)Nc2cccc(-c3cnn(-c4c(C)cc(C(F)(C(F)(F)F)C(F)(F)F)cc4C(F)(F)F)c3)c2F)cc1F [Example 72]	100	100	100	95	–
COc1cc(C(=O)Nc2cccc(-c3cnn(-c4c(C)cc(C(F)(C(F)(F)F)C(F)(F)F)cc4C(F)(F)F)c3)c2F)ccc1C#N [Example 74]	100	100	100	–	100
Cc1cc(C(F)(C(F)(F)F)C(F)(F)F)cc(C(F)(F)F)c1-n1cc(-c2cccc(NC(=O)c3ccsc3)c2F)cn1 [Example 75]	100	80	–	95	–

Source: US10202351B2, “Pyrazolyl derivatives as pest control agents” (BAYER ANIMAL HEALTH GMBH, priority 2015, dated 2019)
